Experimental findings from publication PMC5107896 (Scientific Reports, 2016) are described below.

Format in all cases: biochemical
The target in assay [1] is T1, Prostaglandin G/H synthase 2 (PTGS2/COX2) (Ovis aries, UniProt P79208).
T1 sequence (P79208 17-603): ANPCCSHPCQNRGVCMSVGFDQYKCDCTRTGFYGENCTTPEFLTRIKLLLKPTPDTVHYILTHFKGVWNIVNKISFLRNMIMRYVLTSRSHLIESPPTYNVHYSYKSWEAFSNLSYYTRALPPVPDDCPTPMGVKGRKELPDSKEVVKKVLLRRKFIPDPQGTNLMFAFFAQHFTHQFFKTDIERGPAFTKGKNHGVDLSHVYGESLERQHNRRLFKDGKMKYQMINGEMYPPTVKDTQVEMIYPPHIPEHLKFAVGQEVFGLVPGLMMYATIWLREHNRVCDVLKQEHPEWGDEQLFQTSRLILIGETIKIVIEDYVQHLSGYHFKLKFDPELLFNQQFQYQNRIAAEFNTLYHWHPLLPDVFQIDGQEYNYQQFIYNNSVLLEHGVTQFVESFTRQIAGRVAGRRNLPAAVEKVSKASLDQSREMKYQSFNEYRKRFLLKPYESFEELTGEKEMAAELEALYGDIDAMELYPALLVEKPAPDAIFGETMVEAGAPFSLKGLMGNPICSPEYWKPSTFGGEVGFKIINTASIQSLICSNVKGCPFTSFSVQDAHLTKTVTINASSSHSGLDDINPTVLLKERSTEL
Nature of the assay: Colorimetric COX (ovine) inhibitor screening assay kit (Cayman).

The target in assay [2] is T2, Monoamine oxidase A (MAOA) (Homo sapiens, UniProt P21397).
T2 sequence (P21397 1-527): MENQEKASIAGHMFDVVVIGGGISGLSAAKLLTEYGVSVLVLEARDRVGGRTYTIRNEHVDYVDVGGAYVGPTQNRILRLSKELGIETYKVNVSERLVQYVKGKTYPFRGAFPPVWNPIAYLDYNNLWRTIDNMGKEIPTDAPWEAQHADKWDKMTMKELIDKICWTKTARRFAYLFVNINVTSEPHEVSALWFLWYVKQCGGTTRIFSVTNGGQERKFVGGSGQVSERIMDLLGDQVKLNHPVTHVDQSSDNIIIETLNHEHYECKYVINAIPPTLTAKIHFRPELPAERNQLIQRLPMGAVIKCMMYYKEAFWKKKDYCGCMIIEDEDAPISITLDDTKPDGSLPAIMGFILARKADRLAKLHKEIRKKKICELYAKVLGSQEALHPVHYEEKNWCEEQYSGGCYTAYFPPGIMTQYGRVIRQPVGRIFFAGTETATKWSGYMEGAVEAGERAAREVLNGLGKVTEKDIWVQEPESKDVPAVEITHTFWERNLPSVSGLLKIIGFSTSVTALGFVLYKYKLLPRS
Nature of the assay: in vitro MAOA inhibition assay (enzyme purchased).

The target of a further assay is Factor Xa (F10) (Homo sapiens, UniProt P00742). Description: SensoLyte Rh110 Factor Xa Assay Kit (enzyme inhibition).
Sequence of Factor Xa (F10) (P00742 41-179): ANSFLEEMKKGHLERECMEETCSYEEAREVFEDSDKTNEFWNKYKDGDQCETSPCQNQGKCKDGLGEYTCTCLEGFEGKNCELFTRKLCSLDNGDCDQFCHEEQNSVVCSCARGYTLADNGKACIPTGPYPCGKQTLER
Sequence of Factor Xa (F10) (P00742 235-488): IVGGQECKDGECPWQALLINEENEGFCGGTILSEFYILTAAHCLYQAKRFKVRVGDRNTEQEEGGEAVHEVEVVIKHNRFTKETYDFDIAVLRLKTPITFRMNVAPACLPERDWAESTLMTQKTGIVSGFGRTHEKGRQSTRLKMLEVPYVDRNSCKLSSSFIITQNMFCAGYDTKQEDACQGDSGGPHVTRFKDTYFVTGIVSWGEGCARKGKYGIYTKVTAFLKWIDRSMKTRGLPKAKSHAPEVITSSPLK

The term IC50 denotes the concentration at which inhibition is half-maximal. A high value points to weaker potency.

Each structure is given as a SMILES string.

Consider `O=c1c(O)c(-c2ccc(O)cc2)oc2cc(O)cc(O)c12` [kaempferol], for which the IC50 in assay [1] was found to be 37400 nM.

In assay [2], `O=c1cc(-c2ccc(O)c(O)c2)oc2cc(O)cc(O)c12` [luteolin] returned an IC50 of 10 nM. The compound `O=C(/C=C/c1ccc(O)c(O)c1/C=C/c1ccc(O)c(O)c1)O[C@H](Cc1ccc(O)c(O)c1)C(=O)O` [salvianolic acid A] had an IC50 at Factor Xa (F10) of 90 nM.
